Assay results from ChEMBL document CHEMBL5360669, “Novel Pyrazoloquinoline Compounds as KRAS Inhibitors for Treating Cancer” (ACS Med Chem Lett, 2023).

What was measured:
GTPase KRas [1] = molecular target: T1, GTPase KRas (Homo sapiens, UniProt P01116, G12C); assay: Inhibition of KRAS G12C mutant (unknown origin) incubated for 2 hrs
[2] = Inhibition of KRAS G12C WB mutant (unknown origin) incubated for 2 hrs; set-up: species or system Homo sapiens
GTPase KRas [3] = molecular target: T1, GTPase KRas; assay: Inhibition of KRAS G12C mutant (unknown origin) by measuring exchange of bodipy-GDP for GppNHp incubated for 2 hrs

T1 sequence (P01116 whole entry G12C): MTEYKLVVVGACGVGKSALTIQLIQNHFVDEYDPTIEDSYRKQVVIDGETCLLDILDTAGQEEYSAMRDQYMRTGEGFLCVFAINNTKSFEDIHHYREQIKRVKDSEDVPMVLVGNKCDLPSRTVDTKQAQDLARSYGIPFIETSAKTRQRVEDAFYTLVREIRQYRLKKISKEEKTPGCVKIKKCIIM

| IC50 (GTPase KRas [1]) | IC50 [2] | IC50 (GTPase KRas [3]) | SMILES |
| --- | --- | --- | --- |
| ≤ 100 nM | ≤ 100 nM | ≤ 100 nM | C=C(F)C(=O)N1CC[C@H](n2ncc3c(N4CC(N(C)CC)C4)nc4c(F)c(-c5c(C)c(C)cc6[nH]ncc56)c(Cl)cc4c32)C[C@H]1CC#N |
| ≤ 100 nM | ≤ 100 nM | ≤ 100 nM | COC/C=C/C(=O)N1CC[C@H](n2ncc3c(O[C@@H](C)[C@@H]4CCCN4C)nc4c(F)c(-c5cccc6cccc(C#N)c56)c(Cl)cc4c32)C[C@H]1CC#N |
| ≤ 100 nM | ≤ 100 nM | ≤ 100 nM | CC#CC(=O)N1CC[C@H](n2ncc3c(O[C@@H](C)[C@@H]4CCCN4C)nc4c(F)c(-c5cccc6cccc(C#N)c56)c(C)cc4c32)C[C@H]1CC#N |
| ≤ 100 nM | ≤ 100 nM | ≤ 100 nM | CC#CC(=O)N1CC[C@H](n2ncc3c(O[C@@H](C)[C@@H]4CCCN4C)nc4c(F)c(-c5nccc6cccc(C#N)c56)c(Cl)cc4c32)C[C@H]1CC#N |
| ≤ 100 nM | ≤ 100 nM | ≤ 100 nM | C=C(F)C(=O)N1CC[C@H](n2ncc3c(O[C@@H](C)[C@@H]4CCCN4C)nc4c(F)c(-c5nccc6cccc(C#N)c56)c(Cl)cc4c32)C[C@H]1CC#N |
| ≤ 100 nM | ≤ 100 nM | ≤ 100 nM | COC/C=C/C(=O)N1CC[C@H](n2ncc3c(O[C@@H](C)[C@@H]4CCCN4C)nc4c(F)c(-c5nccc6cccc(C#N)c56)c(Cl)cc4c32)C[C@H]1CC#N |
